Measurements: US12692238B2, “Substituted pyridazinone herbicides” (FMC CORPORATION, priority 2020, dated 2026)

Tests used:
Type in all cases: in vivo
[1] = tested on: barnyardgrass (Echinochloa crus-galli); test: Test A preemergence, barnyardgrass; conditions: 10 days
Outline: (§1)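 Compounds were sprayed in a non-phytotoxic, surfactant-containing solvent. For preemergence the spray was directed onto freshly seeded loam/sand soil; for postemergence it went onto one- to two-leaf plants. Visual injury, 0–100, was recorded at 10 days.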

[2] = tested on: foxtail, giant (giant foxtail, Setaria faberi); test: Test A preemergence, foxtail, giant; conditions: Setaria faberi, pre-emergence, 240 h, 0 to 100 scale, 10 days, read-out: Plant response rating, Foxtail, Giant
Outline: as §1

kochia (Bassia scoparia) [3] = test: Test A preemergence, kochia; conditions: Bassia scoparia, pre-emergence, 240 h, 0 to 100 scale, 10 days, read-out: Plant response rating, Kochia
Outline: as §1

[4] = tested on: redroot pigweed (Amaranthus retroflexus); test: Test A preemergence, redroot pigweed; conditions: 0 to 100 scale, 10 days
Outline: as §1

[5] = tested on: ragweed (common ragweed, Ambrosia artemisiifolia); test: Test A preemergence, ragweed; conditions: Ambrosia artemisiifolia, pre-emergence, 240 h, 0 to 100 scale, 10 days, read-out: Plant response rating, Ragweed
Outline: as §1

[6] = tested on: ryegrass, Italian (Italian ryegrass, Lolium multiflorum); test: Test A preemergence, ryegrass, Italian; conditions: Lolium multiflorum, pre-emergence, 240 h, 0 to 100 scale, 10 days, read-out: Plant response rating, Ryegrass, Italian
Outline: as §1

[7] = tested on: barnyardgrass (Echinochloa crus-galli); test: Test A postemergence, barnyardgrass; conditions: 10 days
Outline: as §1

[8] = tested on: foxtail, giant (giant foxtail, Setaria faberi); test: Test A postemergence, foxtail, giant; conditions: Setaria faberi, post-emergence, 240 h, 10 days, read-out: Plant response rating, Foxtail, Giant
Outline: as §1

kochia (Bassia scoparia) [9] = test: Test A postemergence, kochia; conditions: Bassia scoparia, post-emergence, 240 h, 10 days, read-out: Plant response rating, Kochia
Outline: as §1

[10] = tested on: redroot pigweed (Amaranthus retroflexus); test: Test A postemergence, redroot pigweed; conditions: 10 days
Outline: as §1

[11] = tested on: ryegrass, Italian (Italian ryegrass, Lolium multiflorum); test: Test A postemergence, ryegrass, Italian; conditions: Lolium multiflorum, post-emergence, 240 h, 10 days, read-out: Plant response rating, Ryegrass, Italian
Outline: as §1

[12] = tested on: wheat (Triticum aestivum); test: Test A postemergence, wheat; conditions: Triticum aestivum, post-emergence, 240 h, 10 days, read-out: Plant response rating, Wheat
Outline: as §1

[13] = tested on: galium (catchweed bedstraw, Galium aparine); test: Test A postemergence, galium; conditions: Galium, post-emergence, 240 h, 10 days, read-out: Plant response rating, Galium
Outline: as §1

[14] = tested on: barnyardgrass (Echinochloa crus-galli); test: Test B flooded paddy test, barnyardgrass; conditions: Echinochloa crus-galli; 250 g ai/ha, Flood; visually evaluated after 10 to 14 days; read-out: Plant response rating, Barnyardgrass (0 to 100 scale where 0 is no effect and 100 is complete control)
Outline: (§2)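 Visual ratings (0 = no effect to 100 = complete control) were made versus controls 10 to 14 days after treatment. Compounds were added to the floodwater of pots flooded 3 cm above the soil surface when plants reached the 2-leaf stage.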

[15] = tested on: ducksalad (Heteranthera limosa); test: Test B flooded paddy test, ducksalad; conditions: Heteranthera limosa; 250 g ai/ha, Flood; visually evaluated after 10 to 14 days; read-out: Plant response rating, Ducksalad (0 to 100 scale where 0 is no effect and 100 is complete control)
Outline: as §2

rice (Oryza sativa) = test: Test B flooded paddy test, rice; conditions: Oryza sativa; 250 g ai/ha, Flood; visually evaluated after 10 to 14 days; read-out: Plant response rating, Rice (0 to 100 scale where 0 is no effect and 100 is complete control)
Outline: as §2

[16] = 31 g ai/ha, postemergence, 0 to 100 scale (0 no effect, 100 complete control)
[17] = Postemergence, 125 g ai/ha, 0 to 100 scale

CC(=O)OCOc1c(C)nn(C)c(=O)c1-c1c2cc(C)ccc2cc2ccc(F)cc12 [Compound 24, 5-[(acetyloxy)methoxy]-4-(2-fluoro-7-methyl-9-anthracenyl)-2,6-dimethyl-3(2H)-pyridazinone]
Plant response rating, Barnyardgrass ([1]; 31 g ai/ha, 0 to 100 scale): 60
Plant response rating, Barnyardgrass ([1]; 125 g ai/ha, 0 to 100 scale (0 no effect, 100 complete control)): 90
pest or weed control at 31 g/ha ([2]; 31 g ai/ha): 90%
pest or weed control at 125 g/ha ([2]; 125 g ai/ha): 100%
pest or weed control at 31 g/ha (kochia (Bassia scoparia) [3]; 31 g ai/ha): 70%
pest or weed control at 125 g/ha (kochia (Bassia scoparia) [3]; 125 g ai/ha): 90%
Plant response rating, Pigweed, Redroot ([4]; 31 g ai/ha): 100
Plant response rating, Pigweed, Redroot ([4]; 125 g ai/ha): 100
pest or weed control at 31 g/ha ([5]; 31 g ai/ha): 90%
pest or weed control at 125 g/ha ([5]; 125 g ai/ha): 90%
pest or weed control at 31 g/ha ([6]; 31 g ai/ha): 50%
pest or weed control at 125 g/ha ([6]; 125 g ai/ha): 80%
Plant response rating, Barnyardgrass [7, 16]: 80
Plant response rating, Barnyardgrass [7, 17]: 90
pest or weed control at 31 g/ha [8, 16]: 90%
pest or weed control at 125 g/ha [8, 17]: 90%
pest or weed control at 31 g/ha (kochia (Bassia scoparia) [9]; [16]): 90%
pest or weed control at 125 g/ha (kochia (Bassia scoparia) [9]; [17]): 100%
Plant response rating, Pigweed, Redroot [10, 16]: 100
Plant response rating, Pigweed, Redroot [10, 17]: 100
pest or weed control at 31 g/ha [11, 16]: 90%
pest or weed control at 125 g/ha [11, 17]: 90%
plant injury at 31 g/ha [12, 16]: 0%
plant injury at 125 g/ha [12, 17]: 0%
pest or weed control at 31 g/ha [13, 16]: 100%
pest or weed control at 125 g/ha [13, 17]: 100%
pest or weed control at 250 g/ha [14]: 70%
pest or weed control at 250 g/ha [15]: 75%
plant injury at 250 g/ha (rice (Oryza sativa)): 50%
